Experimental data taken from ChEMBL document CHEMBL1145849, “QSAR and the rational design of long-acting dual D2-receptor/beta 2-adrenoceptor agonists” (J Med Chem, 2003).

Key:
[1] = target: Beta-2 adrenergic receptor (Cavia porcellus) (UniProt Q8K4Z4)
Description: In vitro beta-2 duration was determined using electrically stimulated guinea-pig isolated trachea superfusion system

[2] = physchem; conditions: octanol/water, pH 7.4, logD
[3] = physchem
Description: Ionization constant (pKa)

[4] = target: Beta-2 adrenergic receptor (Cavia porcellus) (UniProt Q8K4Z4); conditions: Trachea
Description: Beta-2-adrenoceptor potency was determined in rings of guinea-pig isolated trachea

[5] = physchem; remark: listed apart in the source
Description: (§1) Classification of ionization constant (pKa)

[6] = physchem; remark: listed apart in the source
Description: as §1

[7] = target: D(2) dopamine receptor (Homo sapiens) (UniProt P14416); test: […] D2 duration was determined using electrically stimulated guinea-pig isolated trachea superfusion system; type: functional; conditions: Cavia porcellus, target entry is the homologue from another species
Chain of D(2) dopamine receptor (Homo sapiens) (P14416 whole entry, the tested form may be a part): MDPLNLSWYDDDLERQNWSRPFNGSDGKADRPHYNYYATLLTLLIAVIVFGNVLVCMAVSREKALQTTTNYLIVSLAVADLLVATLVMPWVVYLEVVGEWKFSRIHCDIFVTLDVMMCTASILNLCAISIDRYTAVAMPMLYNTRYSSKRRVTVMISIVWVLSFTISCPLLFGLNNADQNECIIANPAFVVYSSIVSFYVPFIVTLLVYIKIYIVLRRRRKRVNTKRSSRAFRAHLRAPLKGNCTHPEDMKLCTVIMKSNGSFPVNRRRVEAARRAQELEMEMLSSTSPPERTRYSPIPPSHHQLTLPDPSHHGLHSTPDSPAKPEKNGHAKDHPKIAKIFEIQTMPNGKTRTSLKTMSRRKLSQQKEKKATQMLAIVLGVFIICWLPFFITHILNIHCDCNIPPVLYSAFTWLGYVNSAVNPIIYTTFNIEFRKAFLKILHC

Chain of Beta-2 adrenergic receptor (Cavia porcellus) (Q8K4Z4 whole entry, looked up): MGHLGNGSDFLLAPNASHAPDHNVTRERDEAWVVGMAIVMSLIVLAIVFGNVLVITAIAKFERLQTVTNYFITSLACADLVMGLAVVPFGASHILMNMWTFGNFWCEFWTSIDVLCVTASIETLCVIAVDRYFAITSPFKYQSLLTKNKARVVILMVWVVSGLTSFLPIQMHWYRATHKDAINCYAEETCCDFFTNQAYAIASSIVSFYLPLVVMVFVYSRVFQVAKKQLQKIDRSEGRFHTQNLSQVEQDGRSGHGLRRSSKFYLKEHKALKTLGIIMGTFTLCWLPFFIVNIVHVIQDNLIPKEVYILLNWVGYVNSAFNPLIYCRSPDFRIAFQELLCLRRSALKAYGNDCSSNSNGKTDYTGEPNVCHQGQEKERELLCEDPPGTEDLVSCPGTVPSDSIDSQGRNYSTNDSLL

Row | Compound | Beta2 duration [1] [min] | logD [2] | pKa [3] | p[A]50 [4] | pKa [5] | pKa [6] | D2 duration [7] [min]
1 | Oc1nc2c(O)ccc(CCNCCOCCCOCCc3ccccc3)c2s1 | > 1080 | 2.06 | > 8 | 7.16 | 7.55 | 8.68 | –
2 | Oc1nc2c(O)ccc(CCNCCSCCCOCCc3ccccc3)c2s1 | > 180 | 2.86 | > 8 | 8.36 | – | – | –
3 | NC(=O)c1ccc(CCOCCCS(=O)(=O)CCNCCc2ccc(O)c3nc(O)sc23)cc1 | 50 | 1.1 | < 8 | 7.54 | – | – | –
4 | Oc1nc2c(O)ccc(CCNCCSCCCOCCCc3ccccc3)c2s1 | > 180 | 3.61 | > 8 | 7.27 | – | – | –
5 | O=S(=O)(CCCOCCc1ccc(NS(=O)(=O)c2ccccc2)cc1)CCNCCc1ccc(O)c2nc(O)sc12 | > 180 | 2.88 | < 8 | 7.7 | – | – | –
6 | CN(CCCS(=O)(=O)CCOCCc1ccccc1)CCc1ccc(O)c2nc(O)sc12 | – | – | – | – | – | – | 150
7 | O=S(=O)(CCCNCCc1ccc(O)c2nc(O)sc12)CCOCCCc1ccccc1 | > 180 | 2.1 | > 8 | 8.69 | – | – | –
8 | O=c1[nH]c2c(O)ccc(CCNCCS(=O)(=O)CCCOCCc3ccccc3)c2s1 [SIBENADET] | 146 | 2.51 | < 8 | 8.09 | 8.55 | 6.58 | –
9 | O=S(=O)(CCCOCCCCc1ccccc1)CCNCCc1ccc(O)c2nc(O)sc12 | > 180 | 3.62 | < 8 | 7.76 | – | – | –
10 | Oc1nc2c(O)ccc(CCNCCC(F)(F)CCCOCCc3ccccc3)c2s1 | > 180 | 3.26 | > 8 | 7.77 | – | – | –
11 | O=S(=O)(CCOCCc1ccccc1)NCCCNCCc1ccc(O)c2nc(O)sc12 | 69 | 1.22 | > 8 | 7.51 | – | – | –
12 | O=S(=O)(CCNCCc1ccc(O)c2nc(O)sc12)NCCOCCc1ccccc1 | 79 | 2.38 | > 8 | 6.48 | – | – | –
13 | O=S(=O)(CCCOCCCc1ccccc1)CCNCCc1ccc(O)c2nc(O)sc12 | 157 | 3.13 | < 8 | 7.35 | – | – | –
14 | Oc1nc2c(O)ccc(CCNCCCCCCNCC(F)(F)c3ccccc3)c2s1 | > 180 | 1.57 | > 8 | 6.84 | – | – | –
15 | O=S(=O)(CCCNCCc1ccc(O)c2nc(O)sc12)CCSCCc1ccccc1 | > 180 | 2.34 | > 8 | 7.57 | – | – | –
16 | Oc1nc2c(O)ccc(CCNCCCSCCOCCc3ccccn3)c2s1 | 75 | 0.83 | > 8 | 7.32 | – | – | –
17 | O=S(=O)(CCCOCCc1nccs1)CCNCCc1ccc(O)c2nc(O)sc12 | 45 | 2.35 | < 8 | 7.72 | – | – | –
18 | Nc1ccccc1CCOCCS(=O)(=O)CCCNCCc1ccc(O)c2nc(O)sc12 | 33 | 1.17 | > 8 | 7.46 | – | – | –
19 | Oc1nc2c(O)ccc(CCNCCCOCCSCCc3ccccc3)c2s1 | > 180 | 1.73 | > 8 | 7.03 | – | – | –
20 | O=S(=O)(CCCNCCc1ccc(O)c2nc(O)sc12)NCCOCc1ccccc1 | 72 | 1.11 | > 8 | 7.4 | – | – | –
21 | Oc1nc2c(O)ccc(CCNCCCSCCOCCCc3ccccc3)c2s1 | > 180 | 2.8 | > 8 | 7.86 | – | – | –

Row | Compound | Beta2 duration [1] [min] | logD [2] | pKa [3] | p[A]50 [4] | pKa [5] | pKa [6] | D2 duration [7] [min]
22 | CC(C)(CNCCc1ccc(O)c2nc(O)sc12)CSCCOCCc1ccccc1N | > 180 | 3.44 | > 8 | 7.13 | – | – | –
23 | O=C(CCCOCCc1ccccc1)NCCNCCc1ccc(O)c2nc(O)sc12 | 71 | 1.55 | > 8 | 7.56 | – | – | –
24 | O=S(=O)(CCCCCCNCCc1ccc(O)c2nc(O)sc12)CCc1ccccc1 | > 180 | 1.44 | > 8 | 7 | – | – | –
25 | O=C(CCCCCNCCc1ccc(O)c2nc(O)sc12)NCCc1ccccc1 | 22 | 1.29 | > 8 | 7.18 | – | – | 90
26 | O=S(=O)(CCOCCc1ccccc1)NCCNCCc1ccc(O)c2nc(O)sc12 | 135 | 1.56 | > 8 | 7.39 | 7.5 | 8.58 | –
27 | [O-][S+](CCCNCCc1ccc(O)c2nc(O)sc12)CCOCCc1ccccc1 (stereo not given) | 84 | 1.12 | > 8 | 8.47 | – | – | –
28 | Oc1nc2c(O)ccc(CCNCCCSCCOCCOc3ccccc3)c2s1 | > 180 | 2.11 | > 8 | 7.06 | – | – | –
29 | O=S(=O)(CCCNCCc1ccc(O)c2nc(O)sc12)CCOCCc1cccc2ccccc12 | > 180 | 2.54 | > 8 | 7.73 | – | – | –
30 | O=[N+]([O-])c1ccc(CCOCCCS(=O)(=O)CCNCCc2ccc(O)c3nc(O)sc23)cc1 | 77 | 2.32 | < 8 | 6.73 | – | – | –
31 | O=[N+]([O-])c1ccc(CCOCCCSCCNCCc2ccc(O)c3nc(O)sc23)cc1 | > 180 | 3.29 | > 8 | 6.78 | – | – | –
32 | Cc1cnc(CCOCCCS(=O)(=O)CCNCCc2ccc(O)c3nc(O)sc23)s1 | 126 | 2.87 | < 8 | 7.61 | – | – | –
33 | O=S(=O)(CCCNCCc1ccc(O)c2nc(O)sc12)CCOCCOc1ccccc1 | 52 | 1.13 | > 8 | 7.44 | – | – | –
34 | O=C(CCOCCCc1ccccc1)NCCNCCc1ccc(O)c2nc(O)sc12 | 150 | 1.91 | > 8 | 8.63 | – | – | –
35 | O=S(=O)(CCCOCCc1ccc(Br)cc1)CCNCCc1ccc(O)c2nc(O)sc12 | > 180 | 3.36 | > 8 | 7.4 | – | – | –
36 | Oc1nc2c(O)ccc(CCNCCSCCCOCCc3ccccn3)c2s1 | > 180 | 1.75 | > 8 | 7.51 | – | – | –
37 | Oc1nc2cccc(CCNCCCCCCNCCc3ccc(O)c4nc(O)sc34)c2s1 | 45 | 1 | > 8 | 7.86 | – | – | –
38 | Oc1nc2c(O)ccc(CCNCCCCCCOCCc3ccccc3)c2s1 | > 180 | 2.73 | > 8 | 8.23 | – | – | 270
39 | O=C(NCCCCCCNCCc1ccc(O)c2nc(O)sc12)Nc1ccccc1 | 60 | 1.26 | > 8 | 7.01 | – | – | –
40 | O=S(=O)(CCCOCCc1ccccn1)CCNCCc1ccc(O)c2nc(O)sc12 | 24 | 0.95 | < 8 | 7.49 | – | – | –
41 | O=S(=O)(Nc1ccc(CCOCCCSCCNCCc2ccc(O)c3nc(O)sc23)cc1)c1ccccc1 | > 180 | 3.52 | > 8 | 7.57 | – | – | –
42 | Oc1nc2c(O)ccc(CCNCCCOCCOCCc3ccccc3)c2s1 | > 180 | 1.19 | > 8 | 8.82 | 7.65 | 9.23 | –
